Test results: article PMC11996864, “A small-molecule inhibitor of BCL10-MALT1 interaction abrogates progression of diffuse large B cell lymphoma” (The Journal of Clinical Investigation, 2025)
“And” between values parts separate entries of the source, which are not always exact repeats. Equal entries are not always repeated. “Also recorded” adds a separate entry of the source.

How the values were obtained:
OCI-Ly1 xenografts = test: OCI-Ly1 xenograft in NSG mice; format: in vivo, mouse; conditions: daily i.p., result in words
Excerpt: (§1) TMD8 cells were engrafted into 8-week-old female NOD.CB17-Prkdc^scid/J (NOD-SCID) mice from The Jackson Laboratory by subcutaneous injection of 10 × 10^6 cells resuspended in 50% Cultrex Basement Membrane Extract (R&D Systems, catalog 3632-010-02) into the right flank. OCI-Ly3 cells were engrafted into 5-week-old female NOD.Cg-Prkdc^scid Il2rg^tm1Wjl/SzJ (NSG) mice from The Jackson Laboratory by subcutaneous injection of 2.5 × 10^6 cells resuspended in Cultrex as above. OCI-Ly1 cells were engrafted into 6.5-week-old female NSG mice from The Jackson Laboratory by subcutaneous injection of 20 × 10^6 cells resuspended in Cultrex as above. For all xenograft models, when tumors reached an average volume of 100 mm^3, mice were randomized to receive M1i-124 (50 mg/kg i.p. per day), or equivalent volume of DMSO vehicle (50 μL i.p. per day). […] Tumor size was measured 3 times a week using a caliper and calculated using the formula (smallest diameter^2 × largest diameter)/2. Mice were sacrificed 24 hours after the last injection. Mice were sacrificed when the largest tumors reached 2,500 mm^3. For TMD8 xenograft experiments, tumors and various organs, including lung, heart, liver, and kidney, were collected and fixed in 10% buffered formalin, embedded in FFPE blocks, sectioned, and stained with H&E. Sections were evaluated by a board-certified pathologist.

TMD8 cells = test: Apoptosis, annexin V/SYTOX Blue flow cytometry; format: cell-based, human
Procedure: Cell proliferation, viability, and apoptosis assays. […]
The percentages of cells in early and late apoptosis were combined for
quantification. For CellTrace Violet, CellTiter-glo, and Annexin V apoptosis assays, cell were
cultured in media with 50% of the usual serum. […]

TMD8 tumor xenografts = test: TMD8 xenograft in NOD-SCID mice; format: in vivo, mouse
Excerpt: as §1

OCI-Ly3 xenografts = test: OCI-Ly3 xenograft in NSG mice; format: in vivo, mouse; conditions: daily i.p., vs DMSO, result in words
Excerpt: as §1

[1] = tested on: all CYP enzymes tested (CYP1A2, CYP2C9, CYP2C19, CYP2D6, CYP3A4); test: Reversible CYP inhibition, all enzymes tested; format: in vitro ADME; conditions: both sexes, human, pooled human liver microsomes; read-out: IC50 against all CYP enzymes tested
Procedure: Pharmacokinetic and cytochrome P450 inhibition studies. Studies were performed with the assistance of Touchstone Biosciences (Plymouth Meeting, Pennsylvania). […]
For reversible CYP […]
inhibition studies, different concentrations of M1i-124 were added to 0.2 mg/ml pooled, mixed-gender human liver microsomes (HLM). Each CYP450 isoform-specific probe substrate (CYP1A2, CYP2C9, CYP2C19, CYP2D6, and CYP3A4) was incubated individually with HLM and M1i-124 or corresponding positive control inhibitor (Phenacetin, Tolbutamaide, S-Mephenytoin, Dextromethorphan, Midazolam, and Testosterone). Samples were analyzed for metabolites of the probe substrates by LC-MS/MS at each of the test compound concentrations. A decrease in the formation of the metabolites compared to vehicle control was used to calculate the […]

[2] = tested on: BCL10 and MALT1 mRNA in TMD8 cells; test: BCL10 and MALT1 mRNA expression, qRT-PCR; format: cell-based, human
Procedure: Transfection. HEK293T or HepG2 BCL10-/- cells (used only in Supplemental Figure 1 where indicated) were transiently transfected at approximately 80% confluence using Lipofectamine 3000 (ThermoFisher, Cat# L3000015) per manufacture instructions. Cells were lysed in buffer (150 mM NaCl, 2 mM EDTA, 10% glycerol, 1% Nonidet P-40, 20 mM Tris Hcl, pH 7.4) containing protease and phosphatase inhibitors (Thermo Scientific, Cat#78446) at 24 hours for HEK293T cells or 48 hours for HepG2 BCL10-/- cells.
Immunoprecipitation. Cells were rinsed in PBS and lysed in buffer (150 mM NaCl, 2 mM EDTA, 10% glycerol, 1% Nonidet P-40, 20 mM Tris HCl, pH 7.4) containing protease and phosphatase inhibitors (Thermo Scientific, Cat#78446). Supernatants were incubated with anti-Myc tag agarose beads (Takara, Cat# 631208) or anti-HA tag matrix (Roche, Cat# 11815016001) overnight at 4°C with gentle rotation. Beads were then pelleted at 1000 rpm for 2 min and washed 3-4 times with buffer. Antibody-protein conjugates were removed from beads by boiling for ~5-8 minutes in 2x Laemmli sample buffer (Bio-Rad Laboratories, Cat# 161073) containing 2-mercaptoethanol, and samples were then subjected to SDS-PAGE and immunoblotting.
Antibodies for western blots. The HRP-conjugated anti-HA (clone 3F10, Cat# 12013819001) and anti-HA (clone 3F10, Cat# 11867423001) antibodies were purchased from Sigma. The anti-phospho-IKKα(Ser176)/ IKKβ(Ser177) (clone C84E11, Cat# 2078), rabbit anti-GAPDH (clone […]
were purchased from Cell Signaling Technology. The mouse anti-GAPDH (clone 6C5, Cat# sc- […]
anti-IKKα/β (clone H-470, Cat# sc-7607) antibodies were purchased from Santa Cruz. The anti-N4BP1 antibody (Cat# CPA2415) was purchased from Cohesion Biosciences. The anti-mouse (Cat# W4021) and anti-rabbit (Cat# W4011) HRP-conjugated secondaries were purchased from Promega. The anti-Rat HRP-conjugated secondary was purchased from Cell Signaling […]
qRT-PCR. Jurkat T cells grown in serum free media for 4 hours with indicated inhibitors prior to stimulation with PMA/Ionomycin for 4 hours. […]

## O=S(=O)(NCc1ccc2c(c1)OCO2)c1ccc(Cc2ccc(S(=O)(=O)NCc3ccc4c(c3)OCO4)cc2)cc1 [M1i-124]
OCI-Ly1 xenografts
  OCI-Ly1 xenograft growth: no effect
TMD8 cells; TMD8, 1 μM, 6 days
  % Apoptotic cells: 84.2% and 72.1% and 76.6% and 77.4% and 72.4% and 73.5%
TMD8 cells; TMD8, individual replicates
  Annexin (% positivity): 78.2% and 93.8% and 81.35%
TMD8 cells; result in words
  apoptosis of TMD8 cells: induced significant apoptosis; also recorded: selectively induced apoptosis
TMD8 tumor xenografts; 50 mg/kg i.p. per day, 12 days, vs DMSO, result in words
  growth of TMD8 tumor xenografts (tumor volume, terminal tumor weight): significantly suppressed
TMD8 tumor xenografts; at conclusion of experiment, result in words
  body weight of xenograft mice: slightly lower body weights
TMD8 tumor xenografts; heart, lung, liver, adrenal, kidney, result in words
  microscopic evaluation of major organs: no signs of histologic abnormality
TMD8 tumor xenografts; individual mice
  Terminal body weights: 17.69 g and 19.26 g and 19.45 g and 20.17 g and 20.3 g and 20.4 g and 20.6 g and 20.42 g
TMD8 tumor xenografts; result in words
  clinical signs during treatment: No abnormal clinical signs or indicators of adverse reaction were observed
OCI-Ly3 xenografts
  OCI-Ly3 xenograft tumor growth: significant decrease in tumor growth
[1]
  IC50: > 10 µM
[2]; TMD8, 1 μM, 24 hrs
  BCL10 mRNA (normalized): 1.022 and 1.024 and 1.305
  MALT1 mRNA (normalized): 0.842 and 0.979 and 1.096
[2]; TMD8, result in words
  BCL10 and MALT1 mRNA levels: modest time-dependent upregulation
